In US20140228311A1, “CRYSTALLIZATION OF IDARUBICIN HYDROCHLORIDE” (HERAEUS PRECIOUS METALS GMBH & CO. KG, priority 2011, published 2014):
Structures can show the parent of a compound that is named as a salt.

Key:
Type in all cases: physicochemical
[1] = Storage of currently available idarubicin hydrochloride under typical storage conditions; settings: hydrolysis of the sugar group, increase in 4-demethoxydaunomycinone
[2] = Thermodynamic stability of the crystalline form versus amorphous form; settings: compared with amorphous idarubicin hydrochloride
[3] = Storage stability of crystalline idarubicin hydrochloride in drying chamber, content analysed by HPLC; settings: for Purity of idarubicin hydrochloride: HPLC
Method: The crystalline idarubicin hydrochloride obtained in Example 1 was studied for its stability relative to storage at temperatures of 25° C. and 40° C. for various time periods. For this purpose, aliquots of the obtained crystalline idarubicin hydrochlorides were encapsulated individually. One half of the aliquots were stored in a drying chamber at 25° C., the other half were stored in a different drying chamber at 40° C. After the times specified below, individual samples were taken from the drying chambers and the content of idarubicin hydrochloride was analyzed by high performance liquid chromatography (HPLC).

SMILES	Decomposition during storage [1]	Thermodynamic stability [2]	Stability for long storage ([3]; long storage under elevated temperatures)	Purity of idarubicin hydrochloride ([3]; storage at 25° C., 0 weeks)	Purity of idarubicin hydrochloride ([3]; storage at 25° C., 1 week)	Purity of idarubicin hydrochloride ([3]; storage at 25° C., 2 weeks)	Purity of idarubicin hydrochloride ([3]; storage at 25° C., 4 weeks)	Purity of idarubicin hydrochloride ([3]; storage at 25° C., 8 weeks)	Purity of idarubicin hydrochloride ([3]; storage at 25° C., 24 weeks)	Purity of idarubicin hydrochloride ([3]; storage at 40° C., 0 weeks)	Purity of idarubicin hydrochloride ([3]; storage at 40° C., 1 week)	Purity of idarubicin hydrochloride ([3]; storage at 40° C., 2 weeks)	Purity of idarubicin hydrochloride ([3]; storage at 40° C., 4 weeks)	Purity of idarubicin hydrochloride ([3]; storage at 40° C., 8 weeks)	Purity of idarubicin hydrochloride ([3]; storage at 40° C., 24 weeks)
CC(=O)[C@]1(O)Cc2c(O)c3c(c(O)c2[C@@H](O[C@H]2C[C@H](N)[C@H](O)[C@H](C)O2)C1)C(=O)c1ccccc1C3=O [idarubicin hydrochloride]	steady decomposition														
CC(=O)[C@]1(O)Cc2c(O)c3c(c(O)c2[C@@H](O[C@H]2C[C@H](N)[C@H](O)[C@H](C)O2)C1)C(=O)c1ccccc1C3=O [crystalline idarubicin hydrochloride, idarubicin hydrochloride]		thermodynamically more stable than amorphous idarubicin hydrochloride	extraordinarily high stability	99.95	99.90	99.87	99.93	99.84	99.91	99.95	99.87	99.87	99.92	99.83	99.91
